# Source: patent US20210293825A1, “METHODS FOR PRECISION THERAPEUTIC TARGETING OF HUMAN CANCER CELL MOTILITY AND KITS THEREOF” (UNITED STATES GOVERNMENT AS REPRESENTED BY THE DEPARTMENT …, priority 2018, published 2021)
# Legend:
# [1] = tested on: array of over 9,000 human proteins; assay: ProtoArray Human Protein Microarray binding assay
# Experimental: (§1) PC3-M cells were pre-treated with 10 μM KBU2046 or with KBU2046-biotin for three days, and single cell motility assays conducted. Data are the mean±SEM of a single experiment of N≥24 cells; * denotes Student's 2-sided t-test p-value </=0.05 compared to control. […] PC3-M cells were labeled with 1 μM KBU2046-biotin+/−10 μM free KBU2046, followed by detection with FITC-streptavidin, and visualization by fluorescent microscopy (with equal exposure times). […] KBU2046-biotin was hybridized to ProtoArray® Human Protein Microarray's at 0.5 and 10 μM with and without 10 fold excess free KBU2046.
# Protein Microarray Binding Assay. The ProtoArray® assay, using the Human Protein Microarray platform, was performed by Invitrogen.
# First, the positive control used in protein arrays was staurosporine.
# [2] = tested on: human prostate, breast, colon and lung cancer cells; assay: Single cell migration (motility) assay; assay type: cell-based; conditions: PC3-M cells, 10 μM, three days
# Description: FIG. 1a is a schematic flow of probe synthesis and development strategy. […] Values are mean±SEM of a single experiment in replicates of N=4, with similar findings in multiple separate experiments (also N=4). […] Values are mean±SEM of a single experiment in replicates of N=24, with similar findings in a separate experiment (also N=24). *Denotes Student's t test P value <0.05, compared to controls. […] Values are mean±SEM from N>2 separate experiments, each in replicates of N=3. […] Values are the mean±SD number of total, CFU-GM, CFU-GEMM or BFU-E colonies at 14 days after treatment with KBU2046, from a single experiment in replicates of N=2. […] Values are the mean±SD of a single experiment, with similar results seen in a separate experiment, both in replicates of N=2.
# Cell Migration Assays. Single cell motility assays were conducted by adding 10^4 cells to 35 mm tissue culture dishes (BD Falcon) coated with collagen I (BD Biosciences), incubating at 37° C. in 5% CO2, performing time-lapse imaging using a Biostation (Nikon Instruments), tracking the path of N≥35 cells using ImageJ software and the Manual Tracker plug-in, and using Chemotaxis and Migration Tool plug-in for data analysis.
# recombinant CSRP1 = recombinant CSRP1 (Homo sapiens, UniProt P21291); assay: Pull down of recombinant CSRP1 by KBU2046-biotin; assay type: binding
# Experimental: This yielded 3 proteins, shown in table, for an initial hit rate of 0.03%. Next, free KBU2046 was needed to inhibit binding by >75%. Of the two remaining candidates, isovaleryl-CoA dehydrogenase (ICD) was eliminated. […] Cysteine and glycine-rich protein 1 (CSRP1) was deemed the top protein, though its binding characteristics at 10 μM+free KBU2046 were similar to ICD, albeit not as extreme.
# PC3-M cells [3] = assay: KBU2046-biotin labelling of cells (FITC-streptavidin); assay type: cell-based, human; conditions: 1 μM KBU2046-biotin +/- 10 μM free KBU2046
# Experimental: as §1
# [4] = tested on: phosphorylation of p38 MAPK or of HSP27; conditions: cited from earlier work
# PC3-M cells [5] = assay: Boyden chamber cell invasion assay, PC3-M cells; assay type: cell-based, human; conditions: 10 μM compound, 3 days
# Experimental: Following the synthetic strategy outlined in FIG. 1a, 4′,5,7-trihydroxyisoflavone was used as the chemical scaffold. […] Note, demethylation within the cell cannot be predicted. Therefore, the loss of function was considered to be informative for methylated compounds. […] This adds further evidence of the importance of the C4′-hydroxyl for activity. […] For cell invasion, PC3-M cells were treated with 10 μM compound for a total of 3 days, and cell invasion assays were run at the end of the 3 day period, in the presence of compound. Values are the mean±SEM of three separate experiments, each run in replicates of N=3. […] Values are the mean±SEM of a single experiment, in replicates of N=4, repeated at least once (also N=4). […] The initial structure-activity relationship (SAR) data informed the second round of compound synthesis. […] Compared to 4′,5,7-trihydroxyisoflavone, KBU2046 is non-planar, lacks hydroxyl groups, and particularly those that mediate ER binding, is halogen-substituted, and has a distinctly different biological profile. These characteristics place KBU2046 in a chemically distinct class, compared to the starting compound.
# Cell Invasion Assays. Boyden chamber cell invasion assays were performed as previously described^9, using either denatured collagen (BD Biosciences) or type IV human collagen (BD Biosciences), with the experiments repeated, each in N=4 replicates. In some experiments, as indicated, cells were transfected with an expression plasmid, using Lipofectamine 2000™ (Invitrogen), or with siRNA, using DharmaFect Duo (Thermo Scientific) and co-transfected with β-Galactosidase (Plasmid pCMV⋅SPORT-βgal; Life Technology).
# The initial round of synthesis was designed to examine the removal of individual chemical fragments. In this manner, the importance of these functional groups in mediating efficacy (inhibition of cell invasion) could be determined. […] Initial assays were performed with PC3 and PC3-M cells. However, as these studies yielded similar findings, subsequent screening assays utilized only PC3-M cells. In designing chemical synthetic routes, priority was given to efficacy and toxicity parameters. […] These additional design features included removal of fragments that mediated genistein binding to the estrogen receptor (ER), as determined by ER-genistein 3D x-ray crystal structures (Protein Data Base IDs: 1X7R and 1X7J, for crystal structures of ERα and ERβ with bound genistein, respectively). These features also included removal of chemical fragments that are considered to increase susceptibility to rapid metabolism, for example by the cytochrome P450 (CYP) pathway. The final feature involved incorporation of chemical characteristics previously shown to be associated with effective drugs and which together generally impart more favorable pharmacologic properties, including those described by Lipinski et al. (Lipinski, C. A. et al., Adv Drug Deliv Rev 46, 3-26 (2001)).
# MKK4 = molecular target: T1, MKK4 (Homo sapiens, UniProt P45985, S257E/T261E); conditions: low nanomolar concentrations; cited from earlier work
# T1 sequence (P45985 37-399 S257E/T261E): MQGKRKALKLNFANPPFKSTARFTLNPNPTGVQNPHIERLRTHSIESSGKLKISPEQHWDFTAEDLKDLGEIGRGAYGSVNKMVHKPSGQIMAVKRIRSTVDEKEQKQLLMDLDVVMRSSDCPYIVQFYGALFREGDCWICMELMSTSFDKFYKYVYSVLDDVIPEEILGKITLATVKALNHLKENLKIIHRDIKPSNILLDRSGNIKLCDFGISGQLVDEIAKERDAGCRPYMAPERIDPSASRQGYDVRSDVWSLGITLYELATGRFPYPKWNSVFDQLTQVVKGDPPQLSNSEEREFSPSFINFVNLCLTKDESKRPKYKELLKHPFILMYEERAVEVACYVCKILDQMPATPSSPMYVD
# [6] = tested on: protein phosphorylation in PC3-M and PC3 cells; assay: KinomeView phospho-motif antibody screen; assay type: cell-based, human; conditions: 10 μM, 3 days, ±TGFβ
# Description: Seeking to identify KBU2046's biological target(s), alternative methods were pursued. The KinomeView® panel of antibodies (Cell Signaling Technology, Inc.) detect established protein phosphorylation motifs, and were used to probe for KBU2046-induced changes in protein phosphorylation (FIG. 4a and FIG. 17). Phosphoprotein changes that met the following criteria were prioritized: were induced in cells in vitro as well as in tumors of treated mice (from FIG. 2a), that counteracted transforming growth factor β (TGFβ)-induced effects, and that were reproducible. TGFβ is ubiquitous in vivo, is known to increase PCa cell invasion (Huang, X. et al., Cancer Research 65, 3470-8 (2005)), and KBU2046's anti-invasion efficacy remains in spite of TGFβ-stimulated increases in cell invasion (FIG. 18). Genistein was evaluated under identical treatment conditions for comparison. […] In tumors of treated animals KBU2046 had this same effect on this 83 kDa protein band (green arrow in FIG. 17a). The high molecular selectivity of KBU2046 was further supported by its failure to inhibit over 400 different protein kinases and 20 phosphatases examined, in three different in vitro assay systems (see, Example 1).
# Phospho-proteomic Analysis. The Kinoview™ and PhosphoScan™ assays were performed by Cell Signaling Technology Inc. […]
# [7] = tested on: matrix metalloproteinase 2 (MMP-2) expression; conditions: prospective human trial; cited from earlier work
# [8] = tested on: human prostate cells (PC3, PC3-M, 1532NPTX, 1542NPTX, 1532CPTX, 1542CPTX); conditions: nanomolar concentrations; cited from earlier work
# [9] = tested on: human PCa PC3-M cell orthotopic implants; conditions: murine orthotopic model; cited from earlier work
# recombinant CSRP1, sequence (P21291 whole entry): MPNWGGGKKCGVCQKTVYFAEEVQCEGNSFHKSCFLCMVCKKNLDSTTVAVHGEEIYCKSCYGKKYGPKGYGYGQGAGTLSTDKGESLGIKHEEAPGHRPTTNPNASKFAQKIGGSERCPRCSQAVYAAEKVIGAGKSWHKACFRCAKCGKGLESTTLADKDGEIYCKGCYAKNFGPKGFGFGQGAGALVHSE
smiles,measurement,setting,value
O=C(CCCC[C@@H]1SC[C@@H]2NC(=O)N[C@@H]21)NCCOCCOCCOCCOc1ccc2c(c1)OCC(c1ccc(F)cc1)C2=O (stereo partly drawn) [KBU2046-biotin],binding to HSP90β and CDC37 on the protein arrays,[1],not bound
same,binding to protein arrays,[1],lack of binding
same,initial hit rate,[1]; 0.5 and 10 μM,0.03%
same,number of proteins meeting binding criteria,"[1]; 0.5 and 10 μM, absence of free KBU2046",3
same,single cell motility,[2],biologically active
same,pull down of recombinant CSRP1,recombinant CSRP1,no evidence of such was observed
same,labelling of cells,PC3-M cells [3],labels permeablized cells in a manner that can be competed off
"O=c1c(-c2ccc(O)cc2)coc2cc(O)cc(O)c12 [genistein, 4′,5,7-trihydroxyisoflavone]",downstream phosphorylation of p38 MAPK and HSP27,[4],inhibiting downstream phosphorylation of p38 MAPK
same,effect on cell invasion,PC3-M cells [5],had anti-invasion efficacy
same,inhibition of MKK4 kinase activity,MKK4,inhibited the kinase activity
same,changes in protein phosphorylation,[6],induced widespread changes in protein phosphorylation
same,MMP-2 expression in prostate tissue,[7],downregulates matrix metalloproteinase 2 (MMP-2) expression in prostate tissue
same,inhibition of human PCa cell invasion in vitro,[8],inhibit human prostate cancer (PCa) cell invasion in vitro
same,inhibition of metastasis,[9],inhibit
"CN[C@@H]1C[C@H]2O[C@@](C)([C@@H]1OC)n1c3ccccc3c3c4c(c5c6ccccc6n2c5c31)C(=O)NC4 [staurosporine, reference compound]",number of proteins bound at levels >/=10 fold above background,[1]; positive control,214
